One experiment concerns the target T1, FimH (Escherichia coli, UniProt P08191).
T1 construct: endogenous in cells; host or cells: type 1 piliated uropathogenic E. coli (UPEC)
Kind of experiment: Hemagglutination inhibition (HAI) assay, guinea pig red blood cells. The experiment is classed as cell-based, E. coli. Particulars: concentration inhibiting >90% hemagglutination of guinea pig red blood cells. The procedure:
FIG. 15 depicts the hemagglutination assay (HA) used to assess the compounds' ability to block FimH mediated binding. The HAI titer quantitatively measure the effect of inhibitors on blocking the FimH-mediated hemagglutination (HA) of guinea pig red blood cell infected with E. coli.
In some embodiments, activity of the compound is measured using hemmagglutination titer of guinea pig red blood cells. Hemagglutination of guinea pig red blood cells by type1 piliated UPEC is dependent upon FimH mannose binding ability and serial dilutions allow a quantitative analysis.
Hemagglutination assays for mannose-sensitive agglutination of guinea pig red blood cells were performed as previously described.

The subject of another experiment is UTI89. Kind of experiment: Mouse model of acute UTI, bladder bacterial CFU after UTI89 infection. In kind it is in vivo, Escherichia coli. To be noted: mice, 25 mg/kg oral in 10% cyclodextrin 30 min prior to infecting with UTI89; 6 hpi. On the procedure: The efficacy of in vivo mannoside treatment was evaluated after orally dosing animals with 50 mg/kg of mannosides ZFH-4269 (FIG. 1A), ZFH-5254 (FIG. 1B) and ZFH-5240 (FIG. 1C) or DMSO or PBS 30 min prior to infecting with UTI89. At 6 hours post-infection (hpi) the bladders were removed and total bacterial CFUs were quantitated. […] Next, analogs of 254 were evaluated in the same mouse model of urinary tract infection. Animals were orally dosed with 25 mg/kg of mannosides ZFH-4269 (FIG. 2A), 1CJ68 (FIG. 2B) and 1CJ70 (FIG. 2C) in 10% cyclodextrin or 10% cyclodextrin 30 min prior to infecting with UT189.
The efficacy of in vivo mannoside treatment was evaluated after orally dosing animals with 25 mg/kg of mannosides ZFH269, Prodrug FIM-4269, ZFH-5254, and ZFH-5240 in 10% cyclodextrin or 10% cyclodextrin 30 min prior to infecting with UTI89. At 6 hours post-infection (hpi) the bladders were removed and total bacterial CFUs were quantitated. […] Next, several different prodrugs were evaluated in the same mouse model of urinary tract infection. Animals were orally dosed with 25 mg/kg of mannosides ZFH-4269, prodrug FIM-1233 (FIG. 8B), prodrug FIM-6123 (FIG. 8C) and prodrug 269 in 10% cyclodextrin or 10% cyclodextrin 30 min prior to infecting with UT189.
The FimH-mannose interaction was further investigated in an effort to develop potential ligand-based antagonists of UTIs. […] The non-reducing Man4 anchors into the mannose-binding pocket while the GlcNAc folds over Thr51 allowing specific interactions with a hydrophobic tyrosine gate. Heptyl mannoside mimics the GlcNAc tail of oligomannose-3 and extends it further to increase interactions outside the binding pocket resulting in high affinity binding (Kd=5 nM). Based on the high affinity of heptyl mannose for FimH, the ability of heptyl mannose to reduce bacterial infection in our mouse model of UTI was tested. First, biofilm formation as a surrogate for IBCs formed in the bladder was evaluated. […] Thus, UPEC strain UTI89 was incubated with heptyl mannose prior to inoculation into the bladders of mice.
Bacteria were grown under type 1 pili-inducing conditions (2×24 h at 37° C. statically in LB). The bacteria were harvested and resuspended to an OD600 of 0.5 in PBS. Eight-week-old C3H/HeN (Harlan) female mice were anesthetized by inhalation of isoflurane and infected via transurethral catheterization with […] of the bacterial suspension, resulting in 1-2×10^7 inoculum. At 6 hpi, mice were sacrificed by cervical dislocation under anesthesia and the bladders were immediately harvested and processed as described below. All animal studies using mice were approved by the Animal Studies Committee of Washington University (Animal Protocol Number 20100002).
Mannoside ZFH-2056 was administered either IP (5 mg/kg) or orally (100 mg/kg) 30 min prior to inoculation with UTI89. To enumerate the bacteria present, mice were sacrificed at 6 hpi and bladders were aseptically removed and homogenized in 1 ml PBS, serially diluted and plated onto LB agar plates. CFU was enumerated after 16 h of growth at 37° C.

Consider 19 compounds from patent publication US9957289B2, “Compounds and methods for treating bacterial infections” (Washington University, priority 2013, dated 2018).

T1 sequence (P08191 22-300): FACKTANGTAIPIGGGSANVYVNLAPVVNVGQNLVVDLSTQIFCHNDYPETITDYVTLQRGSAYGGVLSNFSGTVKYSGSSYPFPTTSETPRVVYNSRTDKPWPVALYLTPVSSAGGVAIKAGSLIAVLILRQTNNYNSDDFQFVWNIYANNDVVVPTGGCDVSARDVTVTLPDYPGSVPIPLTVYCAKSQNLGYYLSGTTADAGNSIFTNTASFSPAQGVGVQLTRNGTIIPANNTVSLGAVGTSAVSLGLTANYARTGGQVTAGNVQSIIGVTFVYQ

`Cc1cc(-c2ccc3ccn(CC(=O)N4CCN(C)CC4)c(=O)c3c2)ccc1O[C@H]1O[C@@H](CO)[C@@H](O)[C@H](O)[C@H]1O` [Example 12, 2-[2-(4-methylpiperazin-1-yl)-2-oxo-ethyl]-7-[3-methyl-4-[(2R,3R,4S,5S,6S)-3,4,5-trihydroxy-6-(hydroxymethyl)tetrahydropyran-2-yl]oxy-phenyl]isoquinolin-1-one]: the “HAI Titer EC>90” value on FimH turned out to be 0.008 µM.

With `CNC(=O)c1cccc(-c2ccc(C[C@H]3O[C@@H](CO)[C@@H](O)[C@H](O)[C@H]3O)c(C)c2)c1` [Example 19, N-methyl-3-[3-methyl-4-[[(2R,3R,4R,5S,6S)-3,4,5-trihydroxy-6-(hydroxymethyl)tetrahydropyran-2-yl]methyl]phenyl]benzamide], the “HAI Titer EC>90” value on FimH came to 2.000 µM.

Turning to `Cc1cc(-c2cccc(C(=O)Nc3cccnc3)c2)ccc1O[C@H]1O[C@@H](CO)[C@@H](O)[C@H](O)[C@H]1O` [Example 4, 3-[3-methyl-4-[(2R,3R,4S,5S,6S)-3,4,5-trihydroxy-6-(hydroxymethyl)tetrahydropyran-2-yl]oxy-phenyl]-N-(3-pyridyl)benzamide], the “HAI Titer EC>90” value at FimH came to 0.032 µM.

As to `Cc1nnc(-c2ccc(-c3ccc(O[C@H]4O[C@@H](CO)[C@@H](O)[C@H](O)[C@H]4O)c(C)c3)cc2)o1` [Example 5, (2S,3S,4S,5R,6R)-2-(hydroxymethyl)-6-[2-methyl-4-[4-(5-methyl-1,3,4-oxadiazol-2-yl)phenyl]phenoxy]tetrahydropyran-3,4,5-triol], the “HAI Titer EC>90” value at FimH was determined as 0.062 µM.

With `COC(=O)c1cccc(-c2ccc(O[C@H]3O[C@@H](CO)[C@@H](O)[C@H](O)[C@H]3O)c(C)c2)c1` [Example 1, methyl 3-[3-methyl-4-[(2R,3R,4S,5S,6S)-3,4,5-trihydroxy-6-(hydroxymethyl)tetrahydropyran-2-yl]oxy-phenyl]benzoate], the “HAI Titer EC>90” value on FimH was found to be 0.12 µM.

`Cc1cc(-c2ccc3ccn(CC(=O)O)c(=O)c3c2)ccc1O[C@H]1O[C@@H](CO)[C@@H](O)[C@H](O)[C@H]1O` [Example 9, 2-[7-[3-methyl-4-[(2R,3R,4S,5S,6S)-3,4,5-trihydroxy-6-(hydroxymethyl)tetrahydropyran-2-yl]oxy-phenyl]-1-oxo-2-isoquinolyl]acetic acid]: at FimH, the “HAI Titer EC>90” value stood at 0.016 µM.

`CNC(=O)c1cccc(-c2ccc([C@H](O)C3OC(CO)C(O)C(O)C3O)c(C)c2)c1` (single isomer, unassigned) [Example 18B]: the “HAI Titer EC>90” value on FimH was found to be 6.000 µM.

On to `Cc1cc(-c2cccc(C(=O)Nc3ccncc3)c2)ccc1O[C@H]1O[C@@H](CO)[C@@H](O)[C@H](O)[C@H]1O` [Example 3, 3-[3-methyl-4-[(2R,3R,4S,5S,6S)-3,4,5-trihydroxy-6-(hydroxymethyl)tetrahydropyran-2-yl]oxy-phenyl]-N-(4-pyridyl)benzamide], for which, on FimH, the “HAI Titer EC>90” value was 0.064 µM.

As to `Cc1cc(-c2ccc3ccn(Cc4cccnc4)c(=O)c3c2)ccc1O[C@H]1O[C@@H](CO)[C@@H](O)[C@H](O)[C@H]1O` [Example 16, 7-[3-methyl-4-[(2R,3R,4S,5S,6S)-3,4,5-trihydroxy-6-(hydroxymethyl)tetrahydropyran-2-yl]oxy-phenyl]-2-(3-pyridylmethyl)isoquinolin-1-one], the “HAI Titer EC>90” value at FimH is 0.008 µM.

Regarding `Cc1cc(-c2ccc3ccn(Cc4ccncc4)c(=O)c3c2)ccc1O[C@H]1O[C@@H](CO)[C@@H](O)[C@H](O)[C@H]1O` [Example 15, 7-[3-methyl-4-[(2R,3R,4S,5S,6S)-3,4,5-trihydroxy-6-(hydroxymethyl)tetrahydropyran-2-yl]oxy-phenyl]-2-(4-pyridylmethyl)isoquinolin-1-one], the “HAI Titer EC>90” value at FimH stood at 0.004 µM.

Consider `Cc1nnc(-c2cccc(-c3ccc(O[C@H]4O[C@@H](CO)[C@@H](O)[C@H](O)[C@H]4O)c(C)c3)c2)o1` [Example 6, (2S,3S,4S,5R,6R)-2-(hydroxymethyl)-6-[2-methyl-4-[3-(5-methyl-1,3,4-oxadiazol-2-yl)phenyl]phenoxy]tetrahydropyran-3,4,5-triol], for which, on FimH, the “HAI Titer EC>90” value stood at 0.062 µM.

In the case of `CNC(=O)c1sc(-c2ccc(O[C@H]3O[C@@H](CO)[C@@H](O)[C@H](O)[C@H]3O)c(C)c2)cc1NC(N)=O` [Example 17, N-methyl-5-[3-methyl-4-[(2R,3R,4S,5S,6S)-3,4,5-trihydroxy-6-(hydroxymethyl)tetrahydropyran-2-yl]oxy-phenyl]-3-ureido-thiophene-2-carboxamide], the “HAI Titer EC>90” value at FimH is 0.024 µM.

Regarding `COC(=O)Cn1ccc2ccc(-c3ccc(O[C@H]4O[C@@H](CO)[C@@H](O)[C@H](O)[C@H]4O)c(C)c3)cc2c1=O` [Example 8, methyl 2-[7-[3-methyl-4-[(2R,3R,4S,5S,6S)-3,4,5-trihydroxy-6(hydroxymethyl)tetrahydropyran-2-yl]oxy-phenyl]-1-oxo-2-isoquinolyl]acetate], on FimH, the “HAI Titer EC>90” value worked out at 0.006 µM.

Consider `Cc1cc(-c2ccc3ccn(CCN(C)C)c(=O)c3c2)ccc1O[C@H]1O[C@@H](CO)[C@@H](O)[C@H](O)[C@H]1O` [Example 14, 2-(2-dimethylaminoethyl)-7-[3-methyl-4-[(2R,3R,4S,5S,6S)-3,4,5-trihydroxy-6-(hydroxymethyl)tetrahydropyran-2-yl]oxy-phenyl]isoquinolin-1-one], for which the “HAI Titer EC>90” value on FimH turned out to be 0.012 µM.

Take `CNC(=O)c1cccc(-c2ccc(O[C@H]3O[C@@H](COC(=O)CN(C)C)[C@@H](O)[C@H](O)[C@H]3O)c(C)c2)c1` [Example 22, [(2S,3S,4S,5R,6R)-3,4,5-trihydroxy-6-[2-methyl-4-[3-(methylcarbamoyl)phenyl]phenoxy]tetrahydropyran-2-yl]methyl 2-dimethylaminoacetate]: the “total bacterial CFUs in the bladder” value in the experiment on UTI89 is given as “drop in bacterial counts”.

With `CNC(=O)c1cccc(-c2ccc(OC3OC(COP(=O)(O)O)C(O)C(O)C3O)c(C)c2)c1` [Example 21, [(2S,3S,4S,5R,6R)-3,4,5-trihydroxy-6-[2-methyl-4-[3-(methylcarbamoyl)phenyl]phenoxy]tetrahydropyan-2-yl]methyl dihydrogen phosphate], in the experiment on UTI89, the “total bacterial CFUs in the bladder” value is “drop in bacterial counts”.

On to `Cc1cc(-c2ccc3ccn(CC(=O)Nc4ccncc4)c(=O)c3c2)ccc1O[C@H]1O[C@@H](CO)[C@@H](O)[C@H](O)[C@H]1O` [Example 11, 2-[7-[3-methyl-4-[(2R,3R,4S,5S,6S)-3,4,5-trihydroxy-6-(hydroxymethyl)tetrahydropyran-2-yl]oxy-phenyl]-1-oxo-2-isoquinolyl]-N-(4-pyridyl)acetamide], for which the “HAI Titer EC>90” value on FimH worked out at 0.001 µM.

As for `Cc1cc(-c2ccc3ccn(CC(=O)Nc4cccnc4)c(=O)c3c2)ccc1O[C@H]1O[C@@H](CO)[C@@H](O)[C@H](O)[C@H]1O` [Example 10, 2-[7-[3-methyl-4-[(2R,3R,4S,5S,6S)-3,4,5-trihydroxy-6-(hydroxymethyl)tetrahydropyran-2-yl]oxy-phenyl]-1-oxo-2-isoquinolyl]-N-(3-pyridyl)acetamide], on FimH, the “HAI Titer EC>90” value was 0.001 µM.

`Cc1cc(-c2ccc3ccn(CC(=O)NCCN)c(=O)c3c2)ccc1OC1OC(CO)C(O)C(O)C1O` [Example 13, N-(2-aminoethyl)-2-[7-[3-methyl-4-[(2R,3R,4S,5S,6S)-3,4,5-trihydroy-6-(hydroxymethyl)tetrahydropyran-2-yl]oxy-phenyl]-1-oxo-2-isoquinolyl]acetamide]: the “HAI Titer EC>90” value at FimH turned out to be 0.016 µM.
